Laboratory results taken from ChEMBL document CHEMBL5335769, “Design, synthesis and biological evaluation of novel diarylacylhydrazones derivatives for the efficient treatment of idiopathic pulmonary fibrosis” (Eur J Med Chem, 2023).
Active and inactive are the calls of the source. No cut-off for these calls is given here.

Assays:
[1] = test system: NIH3T3; test: Antiproliferative activity against NIH3T3 cells at 10 uM after 72 hrs by MTT assay; format: functional, Mus musculus
[2] = molecular target: Signal transducer and activator of transcription 3 (Homo sapiens) (UniProt P40763); test: Binding affinity to STAT3 in […] cells assessed as STAT3 stabilization incubated for 1 hr by CETSA; format: cell-based; conditions: NIH3T3
[3] = molecular target: Signal transducer and activator of transcription 3 (Homo sapiens) (UniProt P40763); test: Binding affinity to STAT3 in human A549 cells assessed as STAT3 stabilization incubated for 1 hr by CETSA; format: cell-based
[4] = test system: NIH3T3; test: Inhibition of TGF-beta1 induced NIH-3T3 cells activation assessed as effect on alpha-SMA at 6 uM preincubated with TGF-beta1 for 1 hr followed by compound addition and measured after 24 hrs by DAPI staining based fluorescence microscopic analysis; format: functional, cell-based; conditions: Mus musculus
[5] = test system: NIH3T3; test: Inhibition of TGF-beta1 induced NIH-3T3 cells activation assessed as effect on collagen I at 6 uM preincubated with TGF-beta1 for 1 hr followed by compound addition and measured after 24 hrs by DAPI staining based fluorescence microscopic analysis; format: functional, cell-based; conditions: Mus musculus
[6] = test system: NIH3T3; test: Inhibition of TGF-beta1 induced NIH-3T3 cells activation assessed as reduction in alpha-SMA level at 6 uM preincubated with TGF-beta1 for 1 hr followed by compound addition and measured after 24 hrs by DAPI staining based fluorescence microscopic analysis; format: functional, cell-based; conditions: Mus musculus
[7] = Inhibition of TGF-beta1 induced human A549 cells migration assessed as reduction in wound closure rate at 6 uM preincubated with TGF-beta1 for 1 hr followed by compound addition and measured after 24 hrs by wound healing analysis (reference value: 46.52 to 75.83 %); format: functional
[8] = test system: A549; test: Inhibition of TGF-beta1 induced epithelial-mesenchymal transition in human A549 cells assessed as reduction in E-cadherin protein level at 6 uM preincubated with TGF-beta1 for 1 hr followed by compound addition and measured after 24 hrs by immunofluorescence staining based analysis; format: functional, cell-based
[9] = Cmax in Sprague-Dawley rat at 2 mg/kg, iv measured upto 24 hrs; format: ADME, organism-based; parameters: time < 24 hrs, dose 2 mg/kg, route iv; conditions: in vivo
[10] = Tmax in Sprague-Dawley rat at 2 mg/kg, iv measured upto 24 hrs; format: ADME, organism-based; conditions: in vivo
[11] = AUC(0 to infinity) in Sprague-Dawley rat at 2 mg/kg, iv measured upto 24 hrs; format: ADME, organism-based; parameters: time < 24 hrs, dose 2 mg/kg, route iv; conditions: in vivo
[12] = AUC(0 to infinity) in Sprague-Dawley rat at 20 mg/kg, po measured upto 24 hrs; format: ADME, organism-based; parameters: dose 20 mg/kg, time < 24 hrs, route po; conditions: in vivo
[13] = Clearance in Sprague-Dawley rat at 2 mg/kg, iv measured upto 24 hrs; format: ADME, organism-based; conditions: in vivo
[14] = Half life in Sprague-Dawley rat at 2 mg/kg, iv measured upto 24 hrs; format: ADME, organism-based; conditions: in vivo
[15] = Oral bioavailability in Sprague-Dawley rat at 20 mg/kg measured upto 24 hrs; format: ADME, organism-based; conditions: in vivo
[16] = test system: Mus musculus; test: Anti-fibrotic activity PO dosed bleomycin-induced C57BL/6 mouse model of pulmonary fibrosis assessed as reduction in lung to body weight ratio pretreated with bleomycin for 1 day followed by compound addition once daily for 22 days; format: functional, organism-based; conditions: dose 30-60 mg/kg, time 22.0 day
[17] = test system: Mus musculus; test: Anti-fibrotic activity in bleomycin-induced C57BL/6 mouse model of pulmonary fibrosis assessed as decrease in collagen level by measuring hydroxyproline level at 30 to 60 mg/kg, po pretreated with bleomycin for 1 day followed by compound addition once daily for 21 days; format: functional, organism-based; conditions: dose 30-60 mg/kg, time 21.0 day
[18] = test system: Mus musculus; test: Anti-fibrotic activity in bleomycin-induced C57BL/6 mouse model of pulmonary fibrosis assessed as reduction in collagen deposition at 30 to 60 mg/kg, po pretreated with bleomycin for 1 day followed by compound addition once daily for 22 days by Masson't trichrome staining based analysis; format: functional; parameters: scale not given: the % may be the effect or the level left; conditions: dose 30-60 mg/kg, time 22 day
[19] = test system: Mus musculus; test: Anti-fibrotic activity in bleomycin-induced C57BL/6 mouse model of pulmonary fibrosis assessed as reduction in collagen I level at 30 to 60 mg/kg, po pretreated with bleomycin for 1 day followed by compound addition once daily for 22 days by immunohistochemical analysis; format: functional, organism-based; conditions: dose 30-60 mg/kg, time 22.0 day
[20] = test system: Mus musculus; test: Anti-fibrotic activity in bleomycin-induced C57BL/6 mouse model of pulmonary fibrosis assessed as reduction in vimentin expression level at 30 to 60 mg/kg, po pretreated with bleomycin for 1 day followed by compound addition once daily for 22 days by Western blot analysis; format: functional, organism-based; conditions: dose 30-60 mg/kg, time 22.0 day
[21] = test system: Mus musculus; test: Anti-fibrotic activity in bleomycin-induced C57BL/6 mouse model of pulmonary fibrosis assessed as reduction in p-STAT3 protein level at 30 to 60 mg/kg, po pretreated with bleomycin for 1 day followed by compound addition once daily for 22 days by Western blot analysis; format: functional, organism-based; conditions: dose 30-60 mg/kg, time 22.0 day
[22] = Toxicity in C57BL/6 mouse assessed as effect on liver tissue at 30 to 60 mg/kg, po administered once daily; format: organism-based; conditions: in vivo, dose 30-60 mg/kg
[23] = Toxicity in C57BL/6 mouse assessed as effect on kidney tissue at 30 to 60 mg/kg, po administered once daily; format: organism-based; conditions: in vivo, dose 30-60 mg/kg
[24] = test system: Mus musculus; test: Anti-fibrotic activity in bleomycin-induced C57BL/6 mouse model of pulmonary fibrosis assessed as reduction in ratio of dendritic cells at 60 mg/kg, po administered once daily by flow cytometry analysis (reference value: 20.21%); format: functional; parameters: scale not given: the % may be the effect or the level left
[25] = test system: Mus musculus; test: Anti-fibrotic activity in bleomycin-induced C57BL/6 mouse model of pulmonary fibrosis assessed as reduction in ratio of CD69+CD4+ T cells at 30 mg/kg, po administered once daily by flow cytometry analysis (reference value: 9.05%); format: functional, T-cell; parameters: scale not given: the % may be the effect or the level left
[26] = test system: Mus musculus; test: Anti-fibrotic activity in bleomycin-induced C57BL/6 mouse model of pulmonary fibrosis assessed as reduction in ratio of CD69+CD4+ T cells at 60 mg/kg, po administered once daily by flow cytometry analysis (reference value: 9.05%); format: functional, T-cell; parameters: scale not given: the % may be the effect or the level left
[27] = test system: Mus musculus; test: Anti-fibrotic activity in bleomycin-induced C57BL/6 mouse model of pulmonary fibrosis assessed as reduction in ratio of macrophage cells at 60 mg/kg, po administered once daily by flow cytometry analysis (reference value: 21.51%); format: functional; parameters: scale not given: the % may be the effect or the level left
[28] = test system: Mus musculus; test: Anti-fibrotic activity in bleomycin-induced C57BL/6 mouse model of pulmonary fibrosis assessed as reduction in lung to body weight ratio at 60 mg/kg, po pretreated with bleomycin followed by compound addition once daily on day 7 to 14; format: functional, organism-based; conditions: time 7.0 day
[29] = test system: Mus musculus; test: Anti-fibrotic activity in bleomycin-induced C57BL/6 mouse model of pulmonary fibrosis assessed as reduction in hydroxyproline level at 60 mg/kg, po pretreated with bleomycin followed by compound addition once daily on day 7 to 14; format: functional, organism-based; conditions: time 7.0 day
[30] = test system: Mus musculus; test: Anti-fibrotic activity in bleomycin-induced C57BL/6 mouse model of pulmonary fibrosis assessed as reduction in collagen I level at 60 mg/kg, po pretreated with bleomycin followed by compound addition once daily on day 7 to 14; format: functional, organism-based; conditions: time 7.0 day
[31] = test system: Mus musculus; test: Anti-fibrotic activity in bleomycin-induced C57BL/6 mouse model of pulmonary fibrosis assessed as reduction in vimentin level at 60 mg/kg, po pretreated with bleomycin followed by compound addition once daily on day 7 to 14; format: functional, organism-based; conditions: time 7.0 day
[32] = test system: Mus musculus; test: Anti-fibrotic activity in bleomycin-induced C57BL/6 mouse model of pulmonary fibrosis assessed as reduction in ratio of CD4+CD69+ T cells at 60 mg/kg, po pretreated with bleomycin followed by compound addition once daily on day 7 to 14 by flow cytometry analysis (reference value: 11.56%); format: functional, T-cell; parameters: scale not given: the % may be the effect or the level left; conditions: time 7 day

Sequence of Signal transducer and activator of transcription 3 (Homo sapiens) (P40763 whole entry): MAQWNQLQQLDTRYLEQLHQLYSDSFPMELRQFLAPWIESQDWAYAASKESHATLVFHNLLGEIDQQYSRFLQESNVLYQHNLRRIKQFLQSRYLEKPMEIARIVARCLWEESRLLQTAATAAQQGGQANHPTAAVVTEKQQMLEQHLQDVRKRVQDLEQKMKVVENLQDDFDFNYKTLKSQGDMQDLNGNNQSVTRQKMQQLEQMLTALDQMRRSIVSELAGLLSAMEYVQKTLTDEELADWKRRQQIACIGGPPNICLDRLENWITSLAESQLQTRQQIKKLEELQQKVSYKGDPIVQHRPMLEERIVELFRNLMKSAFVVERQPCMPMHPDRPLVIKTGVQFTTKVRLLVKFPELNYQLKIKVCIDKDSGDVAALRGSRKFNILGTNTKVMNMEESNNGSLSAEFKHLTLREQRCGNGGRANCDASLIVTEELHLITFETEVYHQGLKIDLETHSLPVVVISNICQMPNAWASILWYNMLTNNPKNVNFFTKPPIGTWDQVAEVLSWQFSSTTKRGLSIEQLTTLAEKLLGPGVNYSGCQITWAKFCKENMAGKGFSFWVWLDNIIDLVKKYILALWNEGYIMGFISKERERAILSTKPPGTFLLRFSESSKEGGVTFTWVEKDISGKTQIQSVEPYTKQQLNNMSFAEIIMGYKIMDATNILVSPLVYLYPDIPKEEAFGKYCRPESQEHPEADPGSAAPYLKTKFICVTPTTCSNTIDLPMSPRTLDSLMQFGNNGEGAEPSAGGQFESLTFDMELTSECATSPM

O=C(N/N=C/c1ccc([N+](=O)[O-])s1)c1ccc(OCCCCCCN2CCCCC2)cc1
Activity [1]: 81.88% | Activity [2]: Active | Activity [3]: Active | inhibition [4]: Active | inhibition [5]: Active | inhibition [6]: Active | inhibition at 6 µM [7]: 61.1% | inhibition [8]: Active | Cmax [9]: 471 ng/mL | Tmax [10]: 4.8 min | AUC(0-inf) [11]: 371 ng·h/mL | AUC(0-inf) [12]: 1500 ng·h/mL | clearance [13]: 92.8 mL/min/kg | half-life [14]: 55.8 min | bioavailability [15]: 42.1% | Activity [16]: Dose-Dependent Effect | Activity [17]: Active | Activity [18]: 100% | Activity [19]: Active | Activity [20]: Active | Activity [21]: Active | Activity [22]: Non-Toxic | Activity [23]: Non-Toxic | Activity [24]: 11.71% | Activity [25]: 4.59% | Activity [26]: 3.06% | Activity [27]: 3.45% | Activity [28]: Active | Activity [29]: Active | Activity [30]: Active | Activity [31]: Active | Activity [32]: 2.66%
